Experimental data reported in patent EP0412760A2, “Benzopyran derivatives” (Beecham Group p.l.c., priority 1989, dated 1991).

Assays:
[1] = test system: Spontaneously hypertensive rats; experiment: Antihypertensive activity: systolic blood pressure by tail cuff method; assay type: in vivo; conditions: dose of 0.05 mg/kg p.o.
Procedure: Systolic blood pressures were recorded by a modification of the tail cuff method described by I.M. Claxton, M.G. Palfreyman, R.H. Poyser, R.L. Whiting, European Journal of Pharmacology, 37, 179 (1976). A W+W BP recorder, model 8005 was used to display pulses. Prior to all measurements rats were placed in a heated environment (33.5 ± 0.5°C) before transfer to a restraining cage. The determination of blood pressure was the mean of 5 readings. Spontaneously hypertensive rats (ages 12-18 weeks) with systolic blood pressures >180 mmHg were considered hypertensive.

trachea = experiment: Bronchodilator activity: relaxation of isolated trachea spirals; assay type: cell-based, guinea pigs; conditions: Cavia porcellus; fall in resting tension as percentage of total relaxation evoked by 10⁻³M isoprenaline; guinea pig trachea spirals, Krebs solution at 37°C; read-out: IC₅₀
Procedure: Male guinea pigs (300-600g) were stunned by a blow to the head and bled from the carotid artery. The trachea was exposed, dissected free of connective tissue, and transferred to oxygenated Krebs solution at 37 °C. Next, spirals (2 per trachea) were prepared by cutting the whole trachea spirally along its longitudinal axis and then dividing this spiral lengthwise. Each preparation was mounted, using silk thread, in a 10ml organ bath filled with Krebs solution at 37 °C and bubbled with 5% CO₂ with O₂. The resting tension of the preparations was set at 2g and changes in muscle tension were monitored isometrically by means of a UFI (2oz) force and displacement transducer (Ormed Ltd) connected to a Linseis pen recorder. All preparations were allowed to equilibrate for 60 minutes. During this equilibration period the preparations were washed by upward displacement at 15 minute intervals and, if necessary, the resting tension was readjusted to 2g using a mechanical micromanipulator system.
Once a steady resting tension had been obtained, the preparations were dosed simultaneously with the test compound (10⁻⁸-2x10⁻⁵M), and finally a maximum relaxation achieved by addition of 10⁻³M isoprenaline. The fall in tension evoked by the test compound was expressed as a percentage of the total relaxation evoked in the presence of 10⁻³ isoprenaline. […]

- IC50 (trachea): 230 nM
Compound: CCc1ccc2c(c1)[C@@H](N1CCCCC1=O)[C@H](O)C(C)(C)O2 [compound of formula (I), 3,4-Dihydro-2,2-dimethyl-6-ethyl-4R-(2-oxopiperidin-1-yl)-2H-1-benzopyran-3S-ol]
- maximum fall in blood pressure [1]: 19%
